Laboratory results reported in patent publication US7498357B2, “Chalcone compounds” (Takara Bio Inc., priority 2003, dated 2009).

What was measured:
[1] = target: T1, aldose reductase derived from human muscle cells (Homo sapiens, UniProt P15121); experiment: Inhibitory activities of aldose reductase; format: biochemical; conditions: for inhibitory activities of aldose reductase (in words): concentrations as in Table 1; for inhibition at 10 µM: final concentration 10 μM; for inhibition at 10 µM / inhibition at 20 µM / inhibition at 40 µM: average of two values, read-out: Inhibitory Ratio (%) of Aldose Reductase; for inhibition at 20 µM: final concentration 20 μM; for inhibition at 40 µM: final concentration 40 μM
T1 construct: purchased Wako Pure Chemical Industries
Description: Inhibitory activities of aldose reductase of the compounds prepared in Examples 1 to 9 (TB3, TB4, TB5, TB6, TB7, TB8, TB9, compound (C081) or compound (C042)) were measured by the following method. Twenty microliters of 100 mM methylglyoxal was added to 10 μL of a sample (dissolved each compound in a 50% aqueous dimethyl sulfoxide solution), 100 μL of 0.2 M phosphate buffer (pH 6.2), 20 μL of 1 mM NADPH (phosphate buffer), and 10 μL of a solution of aldose reductase derived from human muscle cells (0.1 U/mL, manufactured by Wako Pure Chemical Industries, phosphate buffer). After 30 seconds passed, change in absorbance of NADPH at 340 nm was determined for 180 seconds. A 50% aqueous dimethyl sulfoxide solution was used as a negative control in place of the sample. In addition, the absorbance was determined using distilled water as a blank of each sample in place of the methylglyoxal solution. The found values are expressed as an average of the values in two experimental values. The inhibitory ratio (%) of aldose reductase was calculated in accordance with the following formula. Inhibitory Ratio (%)=[1−[(ΔAs−ΔAsb)/(ΔAc−ΔAcb)]]×100
Here, ΔAs and ΔAc are changes in absorbance per 1 minute of a sample solution, and a negative control solution, respectively, and ΔAsb and ΔAcb are changes in absorbance per 1 minute of blank of a sample solution, and a negative control solution, respectively.

[2] = tested on: RAW 264.7 cells; experiment: Suppressive activities of NO production (LPS-induced, NO2- by Griess reagent); format: cell-based; conditions: for inhibition at 5 µM / inhibition at 10 µM / inhibition at 20 µM: Mus musculus, LPS, 16 hours, read-out: Suppressive Ability for Induction of NO Production by LPS (%); for inhibition at 5 µM: RAW264.7, 5 μM; for inhibition at 10 µM: RAW264.7, 10 μM; for inhibition at 20 µM: RAW264.7, 20 μM; for suppression of the induction of NO production by LPS (in words): concentrations as in Table 2
Description: Suppressive activities of NO production of the compounds prepared in Examples 1 to 9 (TB3, TB4, TB5, TB6, TB7, TB8, TB9, compound (C081) and compound (C042)) were measured by the following method. RAW 264.7 cells (ATCC TIB 71) were suspended in Dulbecco's modified Eagle's medium (manufactured by Sigma, D5796) containing 10% fetal bovine serum (manufactured by Bio Whittaker, 14-506F), so as to have a concentration of 4×10^5 cells/mL, and the suspension was put to each well of a 48-well microtiter plate in an amount of 500 μL per well. The cells were cultured at 37° C. in the presence of 5% carbon dioxide gas. After 24 hours, the medium was exchanged with Dulbecco's modified Eagle's medium (manufactured by Bio Whittaker, 12-917F) containing 10% fetal bovine serum (manufactured by Bio Whittaker), 2 mM L-glutamine (manufactured by Life Tech Oriental Co., Ltd., 25030-149) without containing phenol red. A 10 mM, 5 mM, or 2.5 mM TB3, TB4, TB5, TB6, TB7, TB8, TB9, compound (C081) or compound (C042) (all are dimethyl sulfoxide solution) was added to each well in an amount of 1 μL per well. After additional 1 hour of culture, a 100 μg/mL aqueous lipopolysaccharide (LPS, manufactured by Sigma, L-2010) solution was added to each well in an amount of 5 μL per well, and the cells were cultured for 16 hours. Thereafter, the concentration of NO2^− which was produced by oxidation of NO in the medium was determined. In addition, there was set a group with addition of dimethyl sulfoxide in place of the each compound as a control. After the above-mentioned culture, 100 μL of a 4% grease reagent (manufactured by Sigma, G4410) was added to 100 μL of the supernatant of the culture medium, and the mixture was allowed to stand at room temperature for 15 minutes. Thereafter, absorbance at 540 nm was determined. The concentration of NO2^− in the medium was calculated from a calibration curve prepared from known concentrations of NaNO2 (manufactured by Sigma, S2252). All of the determinations were carried out twice. The suppressive ability of NO production of the each compound was calculated in accordance with the following formula.

SMILES | inhibition at 10 µM [1] | inhibition at 20 µM [1] | inhibition at 40 µM [1] | inhibitory activities of aldose reductase (in words) [1] | inhibition at 5 µM [2] | inhibition at 10 µM [2] | inhibition at 20 µM [2] | suppression of the induction of NO production by LPS (in words) [2]
C/C(=C\Cc1c(O)ccc(C(=O)/C=C/c2ccc(O)cc2)c1O)CCC(O)C(C)(C)O (centres unmarked) [TB5, 1-[2,4-dihydroxy-3-(6,7-dihydroxy-3,7-dimethyl-2-octenyl)phenyl]-3-(4-hydroxyphenyl)-2-propen-1-one] | 35.1% | 49.7% | 66.7% | inhibitory activities of aldose reductase in a concentration-dependent manner | 17.9% | 35.2% | 76% | suppressed the induction of NO production by LPS in a concentration-dependent manner
CC(C)=CCCC(C)(O)C1Cc2c(ccc(C(=O)/C=C/c3ccc(O)cc3)c2O)O1 (centres unmarked) [TB3, 1-[2,3-dihydro-4-hydroxy-2-(1-hydroxy-1,5-dimethyl-4-hexenyl)-benzofuran-5-yl]-3-(4-hydroxyphenyl)-2-propen-1-one] | 14.2% | 30.1% | 53.8% | inhibitory activities of aldose reductase in a concentration-dependent manner | 8.9% | 9.5% | 43.8% | suppressed the induction of NO production by LPS in a concentration-dependent manner
COc1ccc(C(=O)/C=C/c2ccc(O)cc2)c2c1CC(C(C)(C)O)O2 (centres unmarked) [TB4, 1-[2,3-dihydro-2-(1-hydroxy-1-methylethyl)-4-methoxybenzofuran-7-yl]-3-(4-hydroxyphenyl)-2-propen-1-one] | 57.4% | 57.9% |  | inhibitory activities of aldose reductase in a concentration-dependent manner | 32.6% | 56.4% | 63.7% | suppressed the induction of NO production by LPS in a concentration-dependent manner
COc1ccc(C(=O)/C=C/c2ccc(O)cc2)c(O)c1C/C=C(\C)C/C=C/C(C)(C)OO [TB8, 1-[2-hydroxy-3-(7-hydroperoxy-3,7-dimethyl-2,5-octadienyl)-4-methoxyphenyl]-3-(4-hydroxyphenyl)-2-propen-1-one] | 17.9% | 32.7% | 44.2% | inhibitory activities of aldose reductase in a concentration-dependent manner | 12.2% | 18.7% | 36.9% | suppressed the induction of NO production by LPS in a concentration-dependent manner
COc1ccc(C(=O)/C=C/c2ccc(O)cc2)c(O)c1CC1C2(C)CCC(O2)C1(C)C (centres unmarked) [TB7, 1-[3-(2,5-epoxy-2,6,6-trimethyl-cyclohexylmethyl)-2-hydroxy-4-methoxyphenyl]-3-(4-hydroxyphenyl)-2-propen-1-one] | 20.1% | 33.8% | 54.3% | inhibitory activities of aldose reductase in a concentration-dependent manner | 12.2% | 23.9% | 42.9% | suppressed the induction of NO production by LPS in a concentration-dependent manner

Continued, in another order:

inhibition at 10 µM [1] | inhibition at 20 µM [1] | inhibition at 40 µM [1] | SMILES | inhibitory activities of aldose reductase (in words) [1] | inhibition at 5 µM [2] | inhibition at 10 µM [2] | inhibition at 20 µM [2] | suppression of the induction of NO production by LPS (in words) [2]
31.6% | 44.7% | 57.3% | C=C(C)C(CC/C(C)=C/Cc1c(OC)ccc(C(=O)/C=C/c2ccc(O)cc2)c1O)OO (centres unmarked) [TB9, 1-[2-hydroxy-3-(6-hydroperoxy-3,7-dimethyl-2,7-octadienyl)-4-methoxyphenyl]-3-(4-hydroxyphenyl)-2-propen-1-one] | inhibitory activities of aldose reductase in a concentration-dependent manner | 11.2% | 29.2% | 49.6% | suppressed the induction of NO production by LPS in a concentration-dependent manner
47.8% | 68.7% |  | CC(C)CCc1c(O)ccc(C(=O)/C=C/c2ccc(O)cc2)c1O [Compound (C042), 1-[2,4-dihydroxy-3-(3-methylbutyl)phenyl]-3-(4-hydroxyphenyl)-2-propen-1-one] | inhibitory activities of aldose reductase in a concentration-dependent manner |  | 19.3% | 50.2% | suppressed the induction of NO production by LPS in a concentration-dependent manner
41.9% | 56.5% | 66.8% | CCOC(C)(C)C(O)CC/C(C)=C/Cc1c(O)ccc(C(=O)/C=C/c2ccc(O)cc2)c1O (centres unmarked) [TB6, 1-[3-(7-ethoxy-6-hydroxy-3,7-dimethyl-2-octenyl)-2,4-dihydroxyphenyl]-3-(4-hydroxyphenyl)-2-propen-1-one] | inhibitory activities of aldose reductase in a concentration-dependent manner | 17.3% | 29.4% | 62.2% | suppressed the induction of NO production by LPS in a concentration-dependent manner
11.9% | 16.2% | 26.7% | COc1ccc(C(=O)/C=C/c2ccc(O)cc2)c(O)c1C/C=C(\C)C/C=C/C(C)(C)O [Compound (C081), 1-[2-hydroxy-3-(7-hydroxy-3,7-dimethyl-2,5-octadienyl)-4-methoxyphenyl]-3-(4-hydroxyphenyl)-2-propen-1-one] | inhibitory activities of aldose reductase in a concentration-dependent manner |  | 31.6% | 53.7% | suppressed the induction of NO production by LPS in a concentration-dependent manner
